Test results: PMC11084632, “Pharmacological Evaluation of Cannabinoid Receptor Modulators Using GRABeCB2.0 Sensor” (International Journal of Molecular Sciences, 2024)
Like-named read-outs stand apart in the source and are kept apart here.

Tests used:
GRABeCB2.0 sensor [1] = target: T1, GRABeCB2.0 sensor (Homo sapiens, UniProt P21554, S383T, form not given); format: cell-based; conditions: for Effect on GRABeCB2.0 basal fluorescence: no agonist; for EC50: HEK293 cells, without BSA, ΔF/F0 4-5 min, read-out: EC50 at inducing GRABeCB2.0 fluorescent signal
T1 sequence (P21554 whole entry S383T, looked up, form open, the tested form may be a part): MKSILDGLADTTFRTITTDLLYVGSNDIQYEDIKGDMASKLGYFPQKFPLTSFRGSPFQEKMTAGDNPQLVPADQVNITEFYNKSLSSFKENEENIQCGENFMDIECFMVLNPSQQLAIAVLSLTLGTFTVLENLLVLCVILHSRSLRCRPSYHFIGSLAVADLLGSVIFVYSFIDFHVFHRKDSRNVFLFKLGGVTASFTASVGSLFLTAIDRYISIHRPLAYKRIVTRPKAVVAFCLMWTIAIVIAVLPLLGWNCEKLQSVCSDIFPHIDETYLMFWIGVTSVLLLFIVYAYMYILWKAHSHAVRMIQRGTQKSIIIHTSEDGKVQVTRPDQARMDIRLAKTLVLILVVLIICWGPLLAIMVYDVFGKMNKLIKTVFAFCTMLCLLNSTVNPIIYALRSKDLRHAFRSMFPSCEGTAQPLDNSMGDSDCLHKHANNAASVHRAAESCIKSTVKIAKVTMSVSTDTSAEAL
From the text: (§1) Stable eCB2.0 sensor cell line: A stable sensor cell line was established in HEKtsA201 cells (Sigma-Aldrich, St. Louis, MO, USA) using the PiggyBac Transposon-based system (SBI, Palo Alto, CA, USA). Briefly, the open reading frame of the eCB2.0 sensor from eCB2.0 to C1^20 was cloned into the PB514B shuttle vector using In Fusion cloning (Takara, San Jose, CA, USA). The modified shuttle sequence was obtained with Sanger sequencing (Psomagen, Rockville, MD, USA) and verified (MacVector, Apex, NC, USA). HEKtsA201 cells were maintained in DMEM (Thermo Fisher, Waltham, MA, USA: Gibco #10569-010) supplemented with 10% fetal bovine serum (Gibco #A31605-01) and 1% penicillin/streptomycin (Gibco #15140-122) at 37 °C and 8% CO2. Cells were plated on 12-well tissue culture plates at approximately 50% confluency. This low cell density was used to avoid overgrowth of the cells during the delay between transfection and selection for stable integration. After 3 h, the eCB2.0 shuttle was co-transfected at a plasmid mass ratio of 10:1 with the SBI Transposase vector (PB210PA) using deacylated PEI [71]. All transfected wells were checked the next day for expression of the sensor by presence of basal cpeGFP fluorescence. […] Wells were selected for integration beginning at 4 days post transfection with […] Puromycin (Gibco #A11138-03). Selection was continued throughout all passages of the stable line. Cells were transferred to T25 (25 cm^2) tissue culture flasks after 10 to 14 days of selection.
Assay Procedure: The DMEM solution was removed from the T25 flat-sided cell culture flask by decantation. […] A total of 7 mL of fresh DMEM was added, and cells were gently pipetted to remove any remaining cells from the flask wall. The total volume (10 mL) was transferred to a 15 mL Falcon tube and centrifuged at 800× g for 4 min at 23 °C. […] After the addition of the DPBS buffer, a baseline reading of the cells was taken using the PHERAstar FSX microplate reader (BMG/Labtech, Cary, NC, USA) to establish the F0 or initial fluorescence (see Figure 1A,B).
(§2) When running the assay for an agonist, […] of the compound and […] of additional DPBS buffer was added to the wells. […] In either assay, the cannabinoid ligands were added, followed by incubation of the compound on the cells at 37 °C for 5 min before taking a fluorescence reading using the PHERAstar FSX microplate reader equipped with a GFP filter cube module (Ex. 485 nm/Em. 520 nm). The recorded values were the F or final fluorescence.
Statistical Methods: All GRABeCB2.0 fluorescent signals (in cases noted) are expressed as normalized ΔF/F0 as calculated for the fluorescence assay in the PHERAstar FSX Plate reader.

GRABeCB2.0 sensor [2] = target: T1, GRABeCB2.0 sensor; format: cell-based
From the text: as §1
Assay Procedure: The DMEM solution was removed from the T25 flat-sided cell culture flask by decantation. […] A total of 7 mL of fresh DMEM was added, and cells were gently pipetted to remove any remaining cells from the flask wall. The total volume (10 mL) was transferred to a 15 mL Falcon tube and centrifuged at 800× g for 4 min at 23 °C. Upon completion of centrifugation, the supernatant was removed and discarded, leaving behind a small pellet of cells that were resuspended in 4 mL of fresh DMEM. The cell suspension was mixed in a 1:1 ratio with 0.4% TrypanBlue ([…] each) and […] solution was added to each side of a Countess Cell Counting Chamber and inserted into the Countess II Automated Cell Counter (Thermo Fisher, Waltham, MA, USA). The concentration of cells as adjusted to 0.7–1.0 million cells/mL with DMEM complete media and […] was added to the desired wells of a clear bottom black plastic tissue culture treated 96-well plate. The plate was incubated at 37 °C and 8% CO2 for a 24–48 h period. After incubation, the […] DMEM buffer was removed and replaced with […] of DPBS buffer containing calcium and magnesium (Gibco #14040-133). After the addition of the DPBS buffer, a baseline reading of the cells was taken using the PHERAstar FSX microplate reader (BMG/Labtech, Cary, NC, USA) to establish the F0 or initial fluorescence (see Figure 1A,B).
as §2, with “wells. A concentration curve was made for the modulator with the final concentrations in the wells holding the cells ranging from 1 pM to 10 mM with 1% DMSO BSA in a total volume of […].” for “wells.”
For reported allosteric modulators, the binding assay was modified to test the ligand for basal activity, followed by the addition of the agonist, similar to the antagonist assay.

CB1 receptor = conditions: cited from earlier work
CB1R = conditions: cited from earlier work
GRABeCB2.0 sensor [3] = target: T1, GRABeCB2.0 sensor; conditions: increasing concentrations; cited from earlier work
GRABeCB2.0 sensor [4] = target: T1, GRABeCB2.0 sensor; format: cell-based; conditions: for Effect on CP55940 fluorescence signal/maximal fluorescence: modulator 1 μM, varying CP55940
Method: For reported allosteric modulators, the binding assay was modified to test the ligand for basal activity, followed by the addition of the agonist, similar to the antagonist assay. […] The compound of interest was varied across concentrations ranging (as the case may be) from 1 nM, 3 nM, 10 nM, 30 nM, 100 nM, 300 nM, 1 μM, and 10 μM and performed in triplicate. The concentration of the compound depended on the modulator itself. The concentrations calculated were the final concentration inside the well of the 96-well plate, along with the 1% DMSO and 0.5 mg/mL BSA (See Supplementary Materials, Figure S1).
Statistical Methods: All GRABeCB2.0 fluorescent signals (in cases noted) are expressed as normalized ΔF/F0 as calculated for the fluorescence assay in the PHERAstar FSX Plate reader. EC50/IC50 values were calculated using GraphPad Prism 9 by fitting data to a nonlinear regression model with normalized variable slope (four parameters, normalized where indicated) or using three-parameter response. Data represent mean ± SEM from a minimum of at least three independent experiments performed in triplicates.

[5] = reported, read-out: binding Ki (reported)
[6] = read-out: GRABeCB2.0 IC50 0.5 mg/mL BSA

CCc1c(C(=O)NCCc2ccc(N3CCCCC3)cc2)[nH]c2ccc(Cl)cc12 [ORG27569]
Effect on GRABeCB2.0 basal fluorescence (GRABeCB2.0 sensor [1]): did not significantly alter basal fluorescence
Effect on CP55940-activated GRABeCB2.0 fluorescence (GRABeCB2.0 sensor [2]): void of any concentration-dependent effects
IC50 (GRABeCB2.0 sensor [2]; read-out: IC50 as weak antagonists (normalized curve)): 787 nM

CC(=O)OCCn1c(=NC(=O)C2C(C)(C)C2(C)C)sc2cc(C)ccc21 [MRI-2687]
EC50 (GRABeCB2.0 sensor [1]): 1300 nM

CC(=O)NC(=N)NC(=NS(=O)(=O)c1ccc(Cl)cc1)N1C[C@@H](c2ccccc2)C(c2ccc(Cl)cc2)=N1 [R-MRI-1776]
CB1 binding of R-enantiomers on the sensor (GRABeCB2.0 sensor [2]): weak CB1 binding

CC(=O)NC(N)=NC(=NS(=O)(=O)c1ccc(C(F)(F)F)cc1)N1C[C@H](c2ccccc2)C(c2ccc(Cl)cc2)=N1 [MRI-1891]
IC50 (CB1 receptor; printed after 'bias toward inhibition of the β-arrestin pathway, over G-protein signaling pathway', read-out: IC50 (reported)): 6 nM
Ki (CB1R; [5]): 0.5 nM

CC(C)[C@H](N=C(NS(=O)(=O)c1ccc(Cl)cc1)N1C[C@H](c2ccccc2)C(c2ccc(Cl)cc2)=N1)C(N)=O [JD5037]
Ki (CB1R; read-out: binding Ki on CB1R): 0.5 nM
IC50 (GRABeCB2.0 sensor [2]; read-out: GRABeCB2.0 IC50): 148 ± 12 nM
IC50 (GRABeCB2.0 sensor [2]; [6]): 29 ± 3.5 nM

CCCCC/C=C\C/C=C\C/C=C\C/C=C\CCCC(=O)NCCCl [ACEA, (5Z,8Z,11Z,14Z)-N-(2-chloroethyl)icosa-5,8,11,14-tetraenamide]
EC50 (CB1 receptor; read-out: reported EC50 for the CB1 receptor): 51 nM
Ki (CB1R; Supplementary Table 1, # literature reported values, read-out: CB1R wild-type binding Ki): 1.4 nM
Ki (CB1R; read-out: Ki for CB1 receptor): 1.5 to 5 nM

Pregnenolone sulfate
Effect on CP55940-activated GRABeCB2.0 fluorescence (GRABeCB2.0 sensor [2]): extinguished CP fluorescence but showed no concentration-dependent effects

C=C(C)[C@@H]1CCC(C)=C[C@H]1c1c(O)cc(CCCCC)cc1O [CBD, cannabidiol]
Effect on basal GRABeCB2.0 fluorescent signal (reported) (GRABeCB2.0 sensor [3]): did not affect basal GRABeCB2.0 fluorescent signal

CC(=O)OCCn1c(C)c(C)s/c1=N\C(=O)C1C(C)(C)C1(C)C [MRI-2594]
EC50 (GRABeCB2.0 sensor [1]): 527 ± 27 nM

C[C@H](NC(=O)C(C)(C)Oc1ccc(C(F)(F)F)cn1)[C@@H](Cc1ccc(Cl)cc1)c1cccc(C#N)c1 [Taranabant]
Ki (CB1R; read-out: reported Ki): 0.13 nM

CCNC1(C(N)=O)CCN(c2ncnc3c2nc(-c2ccccc2Cl)n3-c2ccc(Cl)cc2)CC1 [Otenabant]
Ki (CB1R; read-out: binding Ki for CB1R): 0.7 nM

O=[N+]([O-])C[C@H](c1ccccc1)c1c(-c2ccccc2)[nH]c2ccccc12 [GAT228]
Effect on CP55940 fluorescence signal/maximal fluorescence (GRABeCB2.0 sensor [4]): did not shift the fluorescence signal

CC(=O)NC(=N)NC(=NS(=O)(=O)c1ccc(C(F)(F)F)cc1)N1C[C@@H](c2ccccc2)C(c2ccc(Cl)cc2)=N1 [R-MRI-1891]
CB1 binding of R-enantiomers on the sensor (GRABeCB2.0 sensor [2]): weak CB1 binding

C/C(N)=N\C(=N/S(=O)(=O)c1ccc(C(F)(F)F)cc1)N1C[C@H](c2ccccc2)C(c2ccc(Cl)cc2)=N1 [MRI-1867]
IC50 (CB1 receptor; reported, read-out: functional potency IC50 (reported)): 40 nM
Ki (CB1R; [5]): 2.6 nM
IC50 (GRABeCB2.0 sensor [2]; read-out: GRABeCB2.0 IC50): 105 ± 5.4 nM
IC50 (GRABeCB2.0 sensor [2]; [6]): 90 ± 5 nM

CC(=O)[C@H]1CC[C@H]2[C@@H]3CC=C4C[C@@H](O)CC[C@]4(C)[C@H]3CC[C@]12C [Pregnenolone]
Effect on GRABeCB2.0 basal fluorescence (GRABeCB2.0 sensor [1]): did not significantly alter basal fluorescence
Effect on CP55940-activated GRABeCB2.0 fluorescence (GRABeCB2.0 sensor [2]): void of any concentration-dependent effects
Effect on 2-AG-activated GRABeCB2.0 fluorescence (GRABeCB2.0 sensor [2]; 20 μM 2-AG): this behavior could be replicated

O=[N+]([O-])C[C@@H](c1ccccc1)c1c(-c2ccccc2)[nH]c2ccccc12 [GAT229]
Effect on CP55940 fluorescence signal/maximal fluorescence (GRABeCB2.0 sensor [4]): increased the maximal fluorescence
apparent α (Schild-like analysis) (GRABeCB2.0 sensor [4]; range of CP55940 concentrations): > 1
Effect on CP55940-activated GRABeCB2.0 fluorescence (GRABeCB2.0 sensor [2]): more potent enhancer of sensor fluorescence than GAT228
